According to patent publication US20040019024A1, “Use of vitamin d derivatives as bone resorption inhibitors” (priority 2000, published 2004):
Marks after values point to notes of the source that are not given here.

Legend:
vitamin D deficient rats = test: Bone resorption (serum calcium) induced by 1α,25-dihydroxyvitamin D3 in vitamin D deficient rats; format: in vivo, Wistar rats
Protocol: Four-week-old male Wistar rats purchased from Japan SLC (Shizuoka, in Japan) were used. The animals were kept in wire-net cages (three animals in a cage) and raised for 7 weeks with free access to a vitamin D-deficient diet (Ca, 0.0036%; P, 0.3%; Harlan Taklad Research Diet, Madison, Wis., U.S.A.) and drinking water (well water treated with hypochlorite of […]±0.2 ppm). Temperature was kept at 23±1° C. and the humidity at 55±10%. Five animals were used for each experimental group. The control animals received intravenously administered solvent (5% ethanol-0.1% Triton X-100-physiological saline solution), and the experimental animals were intravenously administered 1α,25-dihydroxyvitamin D3 at a dose of 0.25 μg/kg. For animals receiving vitamin D derivatives, compound 11 (23S isomer) was administered intravenously at a dose of 2 μg/kg, 10 μg/kg or 50 μg/kg, or the compound 11 (23S isomer) with or without 1α,25-dihydroxyvitamin D3 at a dose of 0.25 μg/kg. The volume was 2 ml/kg for each animal. 24 hours after administration, a blood sample was taken out from abdominal descending aorta under ether anesthesia, the serum was collected according to conventional methods, and the calcium concentration in the serum was measured. The calcium concentrations were measured according to OCPC-method (Am. J. Clin. Pathol., vol. 45, 290-296 (1966)) with an autoanalyzer (type 7070, manufactured by Hitachi Seisakusho).

[1] = test system: bone marrow cells of normal persons; test: Osteoclast formation induced by 1α,25-dihydroxyvitamin D3 in normal human bone marrow cultures; format: cell-based; conditions: for osteoclast formation (average number of cells ± S.D.): normal marrow
Description: Mononuclear cells were fractionated from bone marrow cells of healthy normal persons according to a method of Kurihara et al. (Endocrinology, vol. 126, 2733-2741 (1990)). Briefly, bone marrow cells were obtained from normal persons, a mononuclear cell fraction was collected by Hypaque-Ficoll density gradient centrifugation, the cell fraction was washed with α-Minimal Essential Media (α-MEM) 3 times, and the cells dispersed in α-MEM containing 10% fetal bovine serum. This mononuclear cell suspension was seeded in 100-mm tissue culture plates, the culture plate was kept for 90 minutes at 37° C. in a 4% CO2-air atmosphere, and the non-adherent cells were collected. The non-adherent mononuclear cells were dispersed into α-MEM culture medium containing 20% horse serum at 10^6 cells/ml, the cell suspension was seeded into 96-well multi plates at 100 μl/well. The capacity of the compound 11 (23S isomer) to inhibit osteoclast formation induced by 1α,25-dihydroxyvitamin D3 was evaluated as follows: Various concentrations of 1α,25-dihydroxyvitamin D3, various concentrations of compound 11 (23S isomer) or a combination of 10^−8 M 1α,25-dihydroxyvitamin D3 solution and various concentrations of compound 11 (23S isomer) solution were added to each well. The culture medium was replaced twice weekly and the cultures continued for 3 weeks at 37° C. in an atmosphere of 4% CO2-air. Osteoclasts that formed were identified by their capacity to bind the 23C6 antibody. The nuclei were counter stained with methyl green. Cells that reacted with the 23C6 antibody and had 3 or more nuclei were scored as osteoclasts.

[2] = test system: bone marrow cells of Paget's disease of bone patients; test: Osteoclast formation induced by 1α,25-dihydroxyvitamin D3 in bone marrow cultures from Paget's disease of bone patients; format: cell-based, human; conditions: for osteoclast formation (average number of cells ± S.D.): Paget's marrow
Description: Mononuclear cells were fractionated from bone marrow cells of healthy normal persons according to a method of Kurihara et al. (Endocrinology, vol. 126, 2733-2741 (1990)). Briefly, bone marrow cells were obtained from normal persons, a mononuclear cell fraction was collected by Hypaque-Ficoll density gradient centrifugation, the cell fraction was washed with α-Minimal Essential Media (α-MEM) 3 times, and the cells dispersed in α-MEM containing 10% fetal bovine serum. This mononuclear cell suspension was seeded in 100-mm tissue culture plates, the culture plate was kept for 90 minutes at 37° C. in a 4% CO2-air atmosphere, and the non-adherent cells were collected. The non-adherent mononuclear cells were dispersed into α-MEM culture medium containing 20% horse serum at 10^6 cells/ml, the cell suspension was seeded into 96-well multi plates at 100 μl/well.
The capacity of the compound 11 (23S isomer) to inhibit osteoclast formation induced by 1α,25-dihydroxyvitamin D3 was evaluated as follows: Various concentrations of 1α,25-dihydroxyvitamin D3, various concentrations of compound 11 ([…]) solution were added to each well. The culture medium was replaced twice weekly and the cultures continued for 3 weeks at 37° C. in an atmosphere of 4% CO2-air. Osteoclasts that formed were identified by their capacity to bind the 23C6 antibody. The nuclei were counter stained with methyl green. Cells that reacted with the 23C6 antibody and had 3 or more nuclei were scored as osteoclasts.
Bone marrow cells were obtained from involved bones of patients with Paget's disease of bone and processed and cultured as described above for normal bone cells. The cultures were treated in an identical manner with 1α,25-dihydroxyvitamin D3 and/or compound 11 (23S isomer) as described in Example 1.
Bone marrow cultures were performed as described in Example 1, with the exception that different types of vitamin D antagonists were added to at varying concentrations to bone marrow cultures stimulated with 1α,25-dihydroxyvitamin D3. The bone marrow cells were taken from involved bones of patients with Paget's disease of bone and the cultures were performed as described in Example 2. There are two diastereoisomers, based on the asymmetric carbon at the 23 position, in compounds 13 and 16. The isomer having the shorter retention time on reverse phase HPLC analysis was the more polar isomer and the isomer having the longer retention time was the less polar isomer.

**Q.** What does the source list for `C=C1CC(CC(C)C2CCC3C(=CC=C4CC(O)CC(O)C4=C)CCCC32C)OC1=O` [compound 11 (23S isomer), (23S)-25-Dehydro-1α,25-Dihydroxyvitamin D3-26, 23-Lactone]?
**A.** serum Ca concentration (vitamin D deficient rats; 0.25 μg/kg 1α,25-dihydroxyvitamin D3 + compound 2 μg/kg intravenously, 24 hours): 5.31 ± 0.22 mg/100 ml serum; serum Ca concentration (vitamin D deficient rats; 0.25 μg/kg 1α,25-dihydroxyvitamin D3 + compound 10 μg/kg intravenously, 24 hours): 4.97 ± 0.18^a mg/100 ml serum; serum Ca concentration (vitamin D deficient rats; 0.25 μg/kg 1α,25-dihydroxyvitamin D3 + compound 50 μg/kg intravenously, 24 hours): 4.72 ± 0.21^b mg/100 ml serum; bone resorption induced by 1α,25-dihydroxyvitamin D3 (in words) (vitamin D deficient rats; 0.25 μg/kg 1α,25-dihydroxyvitamin D3 simultaneously with 2, 10 or 50 μg/kg compound): suppressed; serum Ca concentration (vitamin D deficient rats; compound alone, 2 μg/kg intravenously, 24 hours after administration): 4.61 ± 0.12 mg/100 ml serum; serum Ca concentration (vitamin D deficient rats; compound alone, 10 μg/kg intravenously, 24 hours after administration): 4.67 ± 0.11 mg/100 ml serum; serum Ca concentration (vitamin D deficient rats; compound alone, 50 μg/kg intravenously, 24 hours after administration): 4.65 ± 0.18 mg/100 ml serum; serum calcium concentration after compound alone (in words) (vitamin D deficient rats; even at a dose of 50 μg/kg, 24 hours after administration): increased serum calcium concentrations were not observed; osteoclast formation (average number of cells ± S.D.) ([1]; 10^−8 M 1α,25-dihydroxyvitamin D3 + compound 10^−6 M): 20 ± 7 cells; osteoclast formation (average number of cells ± S.D.) ([1]; 10^−8 M 1α,25-dihydroxyvitamin D3 + compound 10^−7 M): 33 ± 16 cells; osteoclast formation (average number of cells ± S.D.) ([1]; 10^−8 M 1α,25-dihydroxyvitamin D3 + compound 10^−8 M): 44 ± 8 cells; osteoclast formation (average number of cells ± S.D.) ([1]; 10^−8 M 1α,25-dihydroxyvitamin D3 + compound 10^−9 M): 55 ± 12 cells; osteoclast formation (average number of cells ± S.D.) ([1]; 10^−8 M 1α,25-dihydroxyvitamin D3 + compound 10^−10 M): 80 ± 5 cells; osteoclast formation (average number of cells ± S.D.) ([1]; 10^−8 M 1α,25-dihydroxyvitamin D3 + compound 10^−11 M): 85 ± 8 cells; osteoclast formation (average number of cells ± S.D.) ([1]; compound alone, 10^−6 M, 3 weeks): 0 ± 0 cells; osteoclast formation (average number of cells ± S.D.) ([1]; compound alone, 10^−7 M, 3 weeks): 0 ± 1 cells; osteoclast formation (average number of cells ± S.D.) ([1]; compound alone, 10^−8 M, 3 weeks): 3 ± 2 cells; osteoclast formation (average number of cells ± S.D.) ([1]; compound alone, 10^−9 M, 3 weeks): 5 ± 1 cells; osteoclast formation (average number of cells ± S.D.) ([1]; compound alone, 10^−10 M, 3 weeks): 9 ± 5 cells; osteoclast formation (average number of cells ± S.D.) ([1]; compound alone, 10^−11 M, 3 weeks): 17 ± 4 cells; induction of osteoclast formation by the compound alone (in words) ([1]; normal marrow cultures): did not induce osteoclast formation; osteoclast formation (average number of cells ± S.D.) ([2]; 10^−10 M 1α,25-dihydroxyvitamin D3 + compound 10^−6 M): 1 ± 1 cells; osteoclast formation (average number of cells ± S.D.) ([2]; 10^−10 M 1α,25-dihydroxyvitamin D3 + compound 10^−7 M, listed as compound 11 (235 isomer)): 14 ± 1 cells; osteoclast formation (average number of cells ± S.D.) ([2]; 10^−10 M 1α,25-dihydroxyvitamin D3 + compound 10^−8 M, listed as compound 11 (235 isomer)): 63 ± 5 cells; osteoclast formation (average number of cells ± S.D.) ([2]; 10^−10 M 1α,25-dihydroxyvitamin D3 + compound 10^−9 M): 125 ± 5 cells; osteoclast formation (average number of cells ± S.D.) ([2]; 10^−10 M 1α,25-dihydroxyvitamin D3 + compound 10^−10 M): 155 ± 6 cells; osteoclast formation (average number of cells ± S.D.) ([2]; 10^−10 M 1α,25-dihydroxyvitamin D3 + compound 10^−11 M): 170 ± 13 cells; induction of osteoclast formation by the compound alone (in words) ([2]; Paget's marrow cultures): did not induce osteoclast formation; osteoclast formation (average number of cells ± S.D.) ([2]; compound alone, 10^−6 M): 1 ± 1 cells; osteoclast formation (average number of cells ± S.D.) ([2]; compound alone, 10^−7 M): 8 ± 2 cells; osteoclast formation (average number of cells ± S.D.) ([2]; compound alone, 10^−8 M): 9 ± 3 cells; osteoclast formation (average number of cells ± S.D.) ([2]; compound alone, 10^−9 M): 16 ± 2 cells; osteoclast formation (average number of cells ± S.D.) ([2]; compound alone, 10^−10 M): 20 ± 4 cells; osteoclast formation (average number of cells ± S.D.) ([2]; compound alone, 10^−11 M): 29 ± 5 cells; effect on basal osteoclast formation (in words) ([2]; compound alone, Paget's marrow cultures): inhibited basal osteoclast formation
